Measurements: patent US9167812B2, “Biocide compositions comprising amides based on 2-furoic acid and its derivatives” (Cognis IP Management GmbH, priority 2010, dated 2015)
Like-named read-outs stand apart in the source and are kept apart here. Blank lines part the entries; values can stand above or below the molecule they belong to.

Legend:
[1] = Solubility in water of each amide; type: physicochemical
Protocol: (§1) Solubility of several pesticides was measured in THF amides versus other amides. In addition the solubility in water of each amide has been checked.

[2] = Solubility of pesticides in THF amides versus other amides; type: physicochemical
Protocol: as §1

[3] = solubility of the amide solvent in water

SMILES: CCCCCCCCCC(=O)N(C)C [Example C3, C10 dimethyl amide, reference compound]
Solubility of biocides: Epoxyconazole ([2]; Epoxyconazole dissolved in the named solvent): 8 % b.w.
Solubility of biocides: Imidacloprid ([2]; Imidacloprid dissolved in the named solvent): 2 % b.w.
Solubility of biocides: Oxyfluorfen ([2]; Oxyfluorfen dissolved in the named solvent): 27 % b.w.
Solubility of biocides: Tebuconazole ([2]; Tebuconazole dissolved in the named solvent): 32 % b.w.
Water solubility [1, 3]: Low

SMILES: CN(C)C(=O)C1CCCO1 (stereo not shown) [Example 7, THF dimethyl amide]
Solubility of biocides: Epoxyconazole [2]: 10 % b.w.
Solubility of biocides: Imidacloprid [2]: 19 % b.w.
Solubility of biocides: Oxyfluorfen [2]: 31 % b.w.
Solubility of biocides: Tebuconazole [2]: 46 % b.w.
Water solubility [1]: High

Now from value to molecule:

Water solubility [1, 3]: Medium
SMILES: CN(C)C(=O)c1ccco1 [Example 5, 2-Furoic acid dimethyl amide]

Water solubility [1, 3]: Medium
SMILES: CCCCN(CCCC)C(=O)c1ccco1 [Example 6, 2-Furoic acid dibutyl amide]

Water solubility [1, 3]: Medium
SMILES: CCCCN(CCCC)C(=O)C1CCCO1 (stereo not shown) [Example 8, 2-Tetrahydrofuroic Acid Dibutylamide]
